From US20100261877A1, “PROCESS FOR ISOLATING THERAPEUTIC PEPTIDES” (priority 2009, published 2010)
Where a SMILES comes first, the peptide text is derived from it. Bridges are numbered along the chain shown (N, C = ends).

What was measured:
[1] = Solubility of SEQ ID NO. 1 in aqueous isopropanol solution; assay type: physicochemical
Text: 1 that is able to be dissolved in aqueous isopropanol solution, depending on the v/v % isopropanol:water. The very sharp increase in solubility between 40-60% isopropanol was very unexpected and the discovery of this unexpected result allowed for the successful isolation of SEQ ID NO. 1 by precipitation which was necessary for a viable large manufacturing scale-up required for commercial production.

[2] = Solubility of SEQ ID NO. 1 in aqueous ethanol solution; assay type: physicochemical
Text: The above general procedures were followed replacing isopropyl alcohol (IPA) with ethanol.
1 that is able to be dissolved in the aqueous ethanol solution, depending on the v/v % ethanol:water. The very sharp increase in solubility between 50-70 ethanol was very unexpected and the discovery of this unexpected result allowed for the successful isolation of SEQ ID NO. 1 by precipitation which was necessary for a viable large manufacturing scale-up required for commercial production.

[3] = molecular target: T1, guanylate cyclase type C receptor (GCC) (Homo sapiens, UniProt P25092); conditions: in vitro, varying concentrations; cited from earlier work
T1 construct: endogenous in cells
T1 sequence (P25092 24-1073): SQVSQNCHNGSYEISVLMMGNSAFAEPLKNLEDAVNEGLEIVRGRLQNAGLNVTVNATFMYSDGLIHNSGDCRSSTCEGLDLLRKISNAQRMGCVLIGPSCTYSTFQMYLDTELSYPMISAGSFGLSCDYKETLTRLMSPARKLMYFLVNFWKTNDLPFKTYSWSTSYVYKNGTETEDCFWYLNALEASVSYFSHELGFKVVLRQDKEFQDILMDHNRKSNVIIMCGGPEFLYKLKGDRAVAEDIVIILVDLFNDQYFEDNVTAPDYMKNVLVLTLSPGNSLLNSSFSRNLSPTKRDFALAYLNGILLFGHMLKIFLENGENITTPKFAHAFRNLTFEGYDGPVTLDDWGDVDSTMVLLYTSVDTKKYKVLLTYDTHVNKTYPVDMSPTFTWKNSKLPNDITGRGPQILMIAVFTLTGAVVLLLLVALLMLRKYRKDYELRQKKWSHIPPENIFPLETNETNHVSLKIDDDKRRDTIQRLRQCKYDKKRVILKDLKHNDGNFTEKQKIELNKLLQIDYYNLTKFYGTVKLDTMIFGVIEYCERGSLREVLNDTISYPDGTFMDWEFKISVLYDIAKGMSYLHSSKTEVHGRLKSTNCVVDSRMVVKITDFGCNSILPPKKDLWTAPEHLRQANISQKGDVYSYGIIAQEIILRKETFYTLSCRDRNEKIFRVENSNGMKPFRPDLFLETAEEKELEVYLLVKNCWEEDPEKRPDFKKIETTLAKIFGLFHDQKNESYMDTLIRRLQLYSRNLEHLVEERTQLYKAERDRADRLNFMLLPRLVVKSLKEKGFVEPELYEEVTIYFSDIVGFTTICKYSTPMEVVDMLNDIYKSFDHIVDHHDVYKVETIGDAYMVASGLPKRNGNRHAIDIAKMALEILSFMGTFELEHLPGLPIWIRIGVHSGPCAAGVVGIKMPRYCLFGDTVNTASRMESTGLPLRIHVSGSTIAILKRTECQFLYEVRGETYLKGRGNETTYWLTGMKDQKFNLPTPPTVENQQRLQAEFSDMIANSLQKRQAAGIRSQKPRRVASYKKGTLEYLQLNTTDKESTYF

[4] = test system: small bowel motility, fluid secretion, visceral pain; conditions: oral, mice and rats; cited from earlier work

SMILES: C[C@@H]1NC(=O)[C@@H]2CCCN2C(=O)[C@H](CC(N)=O)NC(=O)[C@@H]2CSSC[C@H](N)C(=O)N[C@H]3CSSC[C@H](NC1=O)C(=O)N[C@@H]([C@@H](C)O)C(=O)NCC(=O)N[C@H](C(=O)N[C@@H](Cc1ccc(O)cc1)C(=O)O)CSSC[C@H](NC(=O)[C@H](Cc1ccc(O)cc1)NC(=O)[C@H](CCC(=O)O)NC3=O)C(=O)N2 [SEQ ID No. 1, Cys-Cys-Glu-Tyr-Cys-Cys-Asn-Pro-Ala-Cys-Thr-Gly-Cys-Tyr] (H-CCEYCCNPACTGCY-OH; disulfide 1-6, 2-10, 5-13)
- amount of SEQ ID NO. 1 able to be dissolved ([1]; IPA 0 v/v % in water): 1.3 mg/mL
- amount of SEQ ID NO. 1 able to be dissolved ([1]; IPA 5 v/v % in water): 1.8 mg/mL
- amount of SEQ ID NO. 1 able to be dissolved ([1]; IPA 10 v/v % in water): 2.3 mg/mL
- amount of SEQ ID NO. 1 able to be dissolved ([1]; IPA 15 v/v % in water): 3.3 mg/mL
- amount of SEQ ID NO. 1 able to be dissolved ([1]; IPA 20 v/v % in water): 4.3 mg/mL
- amount of SEQ ID NO. 1 able to be dissolved ([1]; IPA 25 v/v % in water): 4.8 mg/mL
- amount of SEQ ID NO. 1 able to be dissolved ([1]; IPA 30 v/v % in water): 6.0 mg/mL
- amount of SEQ ID NO. 1 able to be dissolved ([1]; IPA 35 v/v % in water): 7.0 mg/mL
- amount of SEQ ID NO. 1 able to be dissolved ([1]; IPA 40 v/v % in water): 13.8 mg/mL
- amount of SEQ ID NO. 1 able to be dissolved ([1]; IPA 45 v/v % in water): 47.8 mg/mL
- amount of SEQ ID NO. 1 able to be dissolved ([1]; IPA 50 v/v % in water): 120.3 mg/mL
- amount of SEQ ID NO. 1 able to be dissolved ([1]; IPA 55 v/v % in water): 162.5 mg/mL
- amount of SEQ ID NO. 1 able to be dissolved ([1]; IPA 60 v/v % in water): 138.5 mg/mL
- amount of SEQ ID NO. 1 able to be dissolved ([1]; IPA 65 v/v % in water): 106.5 mg/mL
- amount of SEQ ID NO. 1 able to be dissolved ([1]; IPA 70 v/v % in water): 65.7 mg/mL
- amount of SEQ ID NO. 1 able to be dissolved ([1]; IPA 75 v/v % in water): 26.5 mg/mL
- amount of SEQ ID NO. 1 able to be dissolved ([1]; IPA 80 v/v % in water): 19.0 mg/mL
- amount of SEQ ID NO. 1 able to be dissolved ([1]; IPA 85 v/v % in water): 12.5 mg/mL
- amount of SEQ ID NO. 1 able to be dissolved ([1]; IPA 90 v/v % in water): 9.0 mg/mL
- amount of SEQ ID NO. 1 able to be dissolved ([1]; IPA 95 v/v % in water): 4.5 mg/mL
- amount of SEQ ID NO. 1 able to be dissolved ([1]; IPA 100 v/v %): 0.3 mg/mL
- amount of SEQ ID NO. 1 able to be dissolved ([2]; EtOH 0 v/v % in water): 0.50 mg/mL
- amount of SEQ ID NO. 1 able to be dissolved ([2]; EtOH 5 v/v % in water): 0.25 mg/mL
- amount of SEQ ID NO. 1 able to be dissolved ([2]; EtOH 10 v/v % in water): 0.75 mg/mL
- amount of SEQ ID NO. 1 able to be dissolved ([2]; EtOH 15 v/v % in water): 1.00 mg/mL
- amount of SEQ ID NO. 1 able to be dissolved ([2]; EtOH 20 v/v % in water): 0.75 mg/mL
- amount of SEQ ID NO. 1 able to be dissolved ([2]; EtOH 25 v/v % in water): 3.00 mg/mL
- amount of SEQ ID NO. 1 able to be dissolved ([2]; EtOH 30 v/v % in water): 3.00 mg/mL
- amount of SEQ ID NO. 1 able to be dissolved ([2]; EtOH 35 v/v % in water): 2.75 mg/mL
- amount of SEQ ID NO. 1 able to be dissolved ([2]; EtOH 40 v/v % in water): 2.25 mg/mL
- amount of SEQ ID NO. 1 able to be dissolved ([2]; EtOH 45 v/v % in water): 3.50 mg/mL
- amount of SEQ ID NO. 1 able to be dissolved ([2]; EtOH 50 v/v % in water): 9.25 mg/mL
- amount of SEQ ID NO. 1 able to be dissolved ([2]; EtOH 55 v/v % in water): 179.25 mg/mL
- amount of SEQ ID NO. 1 able to be dissolved ([2]; EtOH 60 v/v % in water): 347.50 mg/mL
- amount of SEQ ID NO. 1 able to be dissolved ([2]; EtOH 65 v/v % in water): 430.00 mg/mL
- amount of SEQ ID NO. 1 able to be dissolved ([2]; EtOH 70 v/v % in water): 441.50 mg/mL
- amount of SEQ ID NO. 1 able to be dissolved ([2]; EtOH 75 v/v % in water): 304.00 mg/mL
- amount of SEQ ID NO. 1 able to be dissolved ([2]; EtOH 80 v/v % in water): 45.25 mg/mL
- amount of SEQ ID NO. 1 able to be dissolved ([2]; EtOH 85 v/v % in water): 10.25 mg/mL
- amount of SEQ ID NO. 1 able to be dissolved ([2]; EtOH 90 v/v % in water): 10.00 mg/mL
- amount of SEQ ID NO. 1 able to be dissolved ([2]; EtOH 95 v/v % in water): 3.75 mg/mL
- amount of SEQ ID NO. 1 able to be dissolved ([2]; EtOH 100 v/v %): 0.50 mg/mL
- cGMP in human intestinal cells [3]: increased cGMP
- effects on small bowel motility, fluid secretion and visceral pain [4]: promising effects on increasing small bowel motility, fluid secretion and decreasing visceral pain
